According to US20250154240A1, “ANTI-HUMAN CXCL1 ANTIBODY” (CHIOME BIOSCIENCE INC., priority 2022, published 2025):

Columns and labels:
[1] = tested on: OCUM-12 gastric cancer cell line; test: Antitumor activity test, model with OCUM-12 orthotopic transplantation (prevention model); assay type: in vivo, mouse; settings: orally 100 mg/kg/day, once a day for 5 consecutive days followed by 2-day withdrawal
Method: A model with OCUM-12 orthotopic transplantation was prepared to evaluate the above 4 types of candidate antibodies for their in vivo CXCR2 migration inhibitory activity and antitumor activity in a xenograft model with OCUM-12 orthotopic transplantation.
For use as mice, female nude mice (BALB/cAJcl-nu/nu) at 5 to 6 weeks of age were purchased from CLEA Japan, Inc., Japan. For use as human cancer cells, a gastric cancer cell line, OCUM-12, was provided by University Public Corporation Osaka, Japan. […]
On the day following the above transplantation, the mice were randomized into groups (8 or 6 mice per group) and intraperitoneally administered with PBS as a control and with 4 types of candidate antibodies (1A-7H10, 4A-2F7, 5A-5E11 and 028-8-12) and 3 types of non-candidate antibodies (1A-3C6, 1A-2H3 and 4A-5B11) at a dose of 20 mg/kg. […] After 3 weeks had passed from the transplantation, the mice were sacrificed, and the short- and long-axis diameters of tumors formed in their gastric walls were each measured with a caliper. The tumor size was calculated according to the following: 1/2 short-axis diameter (mm)×1/2 long-axis diameter (mm)×3.14. […]
The humanized antibodies were evaluated for their in vivo antitumor activity and CXCR2 migration inhibitory activity in a xenograft model with OCUM-12 orthotopic transplantation. […]

CXCR2-expressing cells [2] = test: In vivo migration inhibitory activity test on CXCR2-expressing cells, OCUM-12 orthotopic transplantation (prevention model); design: species or system mouse; settings: navarixin orally 100 mg/kg/day, once a day for 5 consecutive days followed by 2-day withdrawal
From the text: The stomachs after measurement of the tumor size in [3-1] above were excised and fixed overnight at room temperature with a 10% neutral buffered formalin solution (Wako Pure Chemical Industries, Ltd., Japan), followed by replacement with PBS. Then, paraffin embedding and section preparation were outsourced to Applied Medical Research Laboratory, Japan. The prepared gastric tumor sections were immunohistologically stained with an anti-CXCR2 antibody to evaluate in vivo CXCR2 cell migration inhibitory activity. The sections were deparaffinized and rehydrated, and then treated to inactivate endogenous peroxidase. After antigen activation treatment, the sections were blocked with PBS containing 2% skimmed milk and 0.1% Tween-20, and reacted overnight at 4° C. with an anti-CXCR2 antibody (Biorbyt) as a primary antibody, which had been diluted to 0.3 μg/mL with the blocking solution. […]
Navarixin is among small molecular compounds that act on CXCR2 and inhibit CXCL1-CXCR2 signaling. […] Then, using a model with OCUM-12 orthotopic transplantation, the migration inhibition of CXCR2-expressing cells and antitumor activity were evaluated in vivo for Navarixin. […]
The dose-response relationship between antibody dose and in vivo antitumor activity or CXCR2 migration inhibitory activity was evaluated in a xenograft prevention model with OCUM-12 orthotopic transplantation. […]

CXCR2-expressing cells [3] = settings: known; cited from earlier work

With `CC[C@@H](Nc1c(Nc2cccc(C(=O)N(C)C)c2O)c(=O)c1=O)c1ccc(C)o1` [Navarixin, reference compound] as the compound, how does the Antitumor activity [1] read?
The Antitumor activity was “no antitumor activity was observed”.

And the “Migration of CXCR2-expressing cells in vivo” value (CXCR2-expressing cells [2])?
The value was “significantly inhibit the migration of CXCR2-expressing cells”.

And the “Migration of CXCR2-expressing cells in vitro” value (CXCR2-expressing cells [3])?
The value was “known to inhibit the migration of CXCR2-expressing cells in vitro”.
